Columns and labels:
CRTh2 receptor = target: T1, CRTh2 receptor (Homo sapiens, UniProt Q9Y5Y4); experiment: Intracellular calcium mobilisation (FLIPR, inhibition of PGD2 response) in HEK-hrCRTh2-Gα16 cells; type: cell-based; conditions: antagonism of 2×p[A]50 PGD2, Cheng-Prusoff analysis, read-out: pA2 (converted)
T1 construct: expressed in transfected cells
T1 sequence (Q9Y5Y4 1-395): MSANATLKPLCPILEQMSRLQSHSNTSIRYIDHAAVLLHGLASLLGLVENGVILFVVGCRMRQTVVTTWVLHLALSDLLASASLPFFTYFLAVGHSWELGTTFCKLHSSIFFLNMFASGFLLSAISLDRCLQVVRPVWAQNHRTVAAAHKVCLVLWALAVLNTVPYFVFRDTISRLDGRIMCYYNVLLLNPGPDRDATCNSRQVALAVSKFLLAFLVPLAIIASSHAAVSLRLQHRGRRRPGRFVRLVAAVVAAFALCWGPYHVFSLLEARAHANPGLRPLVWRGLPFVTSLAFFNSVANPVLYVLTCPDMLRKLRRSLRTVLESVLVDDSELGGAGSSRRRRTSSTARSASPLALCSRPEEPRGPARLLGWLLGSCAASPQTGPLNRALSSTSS
Experimental: Intracellular Calcium Mobilisation
Human Embryonic Kidney Cells co-transfected with both the CRTh2 receptor and Gα16 G-protein (HEK-hrCRTh2-Gα16) are routinely cultured as monolayers in Dulbecco's Modified Eagles Medium (DMEM; Sigma) supplemented with 10% (v:v) heat inactivated foetal bovine serum (New Zealand sourced; Hyclone), 1% (v:v) non-essential amino acids (Gibco BRL), 1% (v:v) penicillin/streptomycin (Gibco BRL), 2 mM L-glutamine (Gibco BRL) and grown under 1 mg/ml (v:v) Geneticin (Gibco BRL) antibiotic selection. Approximately 24 hours prior to the assay the cells are plated at a seeding density of 100,000 cells/well in 100 μl growth media into black walled 96 well Poly-D-Lysine coated plates (Becton Dickinson), with clear bottoms to allow cell inspection and fluorescence measurements from the bottom of each well. All cultures are maintained under standard tissue culture conditions (37° C. in a humidified atmosphere of 5% CO2).
To enable changes in intracellular calcium levels to be measured in HEK-hrCRTh2-Gα16 cells fluo-3AM is utilised as the fluorescent calcium indicator. A dye loading buffer is prepared which consists of a final concentration of 5 μM Fluo-3AM fluorescent cytoplasmic calcium indicator dye (Tef Labs), 2.2 μl/ml Pluronic F127 (Molecular Probes) to promote dye uptake, and 0.5 mM brilliant black (Sigma) to reduce background fluorescence in Balanced Salt Solution (BSS; 125 mM NaCl, 5.4mM KCl, 16.2 mM NaHCO3, 0.8 mM MgCl2, 1 mM CaCl2, 20 mM HEPES, 1 mM NaH2PO4, 5.5 mM D-(+)-Glucose, 0.1% BSA and pH 7.4 with NaOH). […]
Test compounds are made up at a stock concentration of 10 mM in DMSO. The compounds to be evaluated are then prepared, by serial dilution in BSS buffer, to the required concentrations for inhibition dose response curves to be constructed. […] This allows the potency agonist ([A]50) value to be determined for the HEK-hrCRTh2-Gα16 cells on any given day. Once the p[A]50 for PGD2 has been determined a separate assay plate containing 2×p[A]50 of PGD2 is prepared as the 2nd addition plate (or agonist plate). […]

Kb (CRTh2 receptor)	melting point	Compound
316 nM	160 to 162 °C	COc1ccc2c(c1)c(CC(=O)O)c(C)n2-c1cc(C)nc(-c2ccccc2)n1 [Example 1, [5-methoxy-2-methyl-1-(6-methyl-2-phenylpyrimidin4-yl)-1H-indol-3-yl]acetic acid]
316 nM	158 to 160 °C	COc1ccc2c(c1)c(CC(=O)O)c(C)n2-c1nc2ccccc2s1 [Example 2, [1-(1,3-benzothiazol-2-yl)-5-methoxy-2-methyl-1H-indol-3-yl]acetic acid]
–	168 to 170 °C	COc1ccc2c(c1)c(CC(=O)O)c(C)n2-c1cc(Oc2ccccc2)nc(Oc2ccccc2)n1 [Example 3, [1-(2,6-diphenoxypyrimidin-4-yl)-5-methoxy-2-methyl-1H-indol-3-yl]acetic acid]
158 nM	–	Cc1ccc2c(c1)c(CC(=O)O)c(C)n2-c1cc(Oc2ccccc2)nc(Oc2ccccc2)n1 [[1-(2,6-diphenoxypyrimidin-4-yl)-2,5-dimethyl-1H-indol-3-yl]acetic acid]

From patent US20050101612A1, “Use of indole-3-acetic acids in the treatment of asthma, copd and other diseases” (priority 2002, published 2005)
